{"source": "paper PMC9194936", "about": "“Preclinical Activity and Pharmacokinetic/Pharmacodynamic Relationship for a Series of Novel Benzenesulfonamide Perforin Inhibitors” (ACS Pharmacology & Translational Science, 2022)", "key": {"perforin": {"biological_target": "T1, perforin (Mus musculus, UniProt P10820)", "T1 construct": "endogenous in cells; host or cells: recipient cytotoxic lymphocytes (NK/CTL) of wild-type C57BL/6 mice, in vivo", "T1 sequence (P10820 21-554)": "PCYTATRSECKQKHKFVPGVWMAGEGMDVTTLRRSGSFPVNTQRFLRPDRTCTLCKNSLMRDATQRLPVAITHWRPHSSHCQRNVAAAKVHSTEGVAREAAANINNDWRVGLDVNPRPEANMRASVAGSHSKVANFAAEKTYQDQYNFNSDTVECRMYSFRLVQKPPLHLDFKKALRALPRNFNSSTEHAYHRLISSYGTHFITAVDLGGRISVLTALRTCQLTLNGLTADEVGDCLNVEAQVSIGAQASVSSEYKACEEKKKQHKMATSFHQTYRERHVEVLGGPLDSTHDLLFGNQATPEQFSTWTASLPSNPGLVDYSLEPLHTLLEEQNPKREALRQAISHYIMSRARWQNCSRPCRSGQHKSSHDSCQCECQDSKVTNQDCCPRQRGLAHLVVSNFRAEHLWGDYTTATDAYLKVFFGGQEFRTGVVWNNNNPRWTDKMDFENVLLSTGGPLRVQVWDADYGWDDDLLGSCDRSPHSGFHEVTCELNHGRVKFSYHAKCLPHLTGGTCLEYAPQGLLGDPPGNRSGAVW", "experiment": "In vivo perforin inhibition (allogeneic bone marrow transfer assay)", "description": "This model was selected as a surrogate assay for graft rejection during allogeneic bone marrow/stem cell transplantation to enable rapid testing of perforin inhibition in vivo. Mice were transplanted with a mixture of equal numbers of allogeneic immunologically mismatched and syngeneic immunologically matched bone marrow. […] Allogeneic cell survival in spleen and peripheral blood was determined 24 h after transplant, using C57BL/6 perforin-deficient mice (100% perforin inhibition) and untreated C57BL/6 mice (0% perforin inhibition) as controls.\nCompounds were tested for in vivo efficacy as described previously.[14] Age- (8–12 weeks) and sex-matched wild-type (H-2D^b, CD45.2^+) or perforin-deficient C57BL/6 mice (C57BL/6-Prf1^tm1Sdz/J; H-2D^b, CD45.2^+) received 12 ×10^6 bone marrow cells from both allogeneic BALB/c (H-2D^d) MHC-mismatched and syngeneic C57BL/6 (H-2D^b) MHC-matched mice (24 × 10^6 cells total). The wild-type recipient mice were treated with perforin inhibitor compounds by intraperitoneal injection in 20% hydroxypropyl-β-cyclodextrin vehicle (10 mL/kg), or with vehicle alone; perforin-deficient mice remained untreated. The mice were euthanized 24 h after bone marrow transfer for peripheral blood mononuclear cell (PBMC) and spleen collection.\nThroughout the study, we utilized two strategies to distinguish between recipient, donor allogeneic, and donor syngeneic cells based on either fluorescent labeling prior to transplant or congenic marker expression (CD45.1/CD45.2). In the fluorescent dye approach, allogeneic wild-type BALB/c (H-2D^d, CD45.2^+) bone marrow was labeled with 1 μM carboxyfluorescein succinimidyl ester (CFSE) prior to mixing with syngeneic bone marrow from C57BL/6 congenic mice (CD45.1^+). Twenty-four hours after cell transfer, the harvested cells were stained with anti-CD45.1-phycoerythrin and anti-TER119-allophycocyanin monoclonal antibodies (BioLegend, San Diego, CA). TER119 was used for erythroid exclusion prior to the identification of allogeneic (CFSE^+) and syngeneic (CD45.1^+) donor cells. Using a second purely congenic marker approach, allogeneic BALB/c congenic (H-2D^d, CD45.1^+) bone marrow was mixed with syngeneic C57BL/6 double congenic (H-2D^b, CD45.1^+CD45.2^+) bone marrow prior to transfer. The harvested cells were stained with anti-CD45.1-phycoerythrin, anti-CD45.2-phycoerythrin-cyanine-7, and anti-TER119-allophycocyanin monoclonal antibodies (BioLegend, San Diego, CA). TER119 was used for erythroid exclusion, prior to identification of allogeneic donor (CD45.1^+), syngeneic donor (CD45.1^+ CD45.2^+), and recipient (CD45.2^+) cells. Dead cells were excluded using 7-aminoactinomycin D. Samples were acquired with an LSR Fortessa (BD Biosciences) and analyzed using FlowJo version 9 software (BD Biosciences). Prism version 9 (GraphPad) was used to calculate CTL indices as the percentage survival of syngeneic donor cells divided by the percentage survival of allogeneic donor cells. […] In vivo perforin inhibition animal experiments were approved by the Animal Ethics Committee of the QIMR Berghofer Medical Research Institute."}, "[1]": {"tested_on": "perforin-dependent cytotoxicity of KHYG-1 NK cells on K562 target cells", "experiment": "KHYG-1 cytotoxicity assay (51Cr-labeled K562 target cells)", "type": "cell-based", "conditions": "Homo sapiens", "description": "(Table 1). […] An IC90 was used rather than an IC50 as we anticipated that elevated suppression of perforin activity is likely required to preserve the transplanted bone marrow stem cells in vivo.\nThe inhibition of the cytotoxic activity of KHYG-1 NK cells on K562 target cells was determined as described previously.[14] Briefly, compounds were added to KHYG-1 cells at 6–7 concentrations ranging from 20 μM to 312.5 nM in 2-fold dilutions in RPMI medium (Thermo Fisher Scientific, Waltham, MA) supplemented with 0.1% bovine serum albumin (BSA; Sigma-Aldrich, St. Louis, MO) for 20 min. ^51Cr-labeled K562 leukemia target cells were added to KHYG-1 cells at an effector/target ratio of 2:1 and incubated at 37 °C for 4 h. ^51Cr release was assayed using a Harvesting Press (Skatron Instruments, Lier, Norway), and radioactivity was estimated on a Wallac Wizard 1470 Automatic γ counter (Turku, Finland). The IC90 values were calculated by fitting a four-parameter logistic sigmoidal dose–response curve to the data using Prism version 8 (GraphPad, San Diego, CA). Each IC90 value represents the mean of at least three independent experiments, where six to seven concentrations were tested in triplicate for each compound."}, "recombinant perforin": {"tested_on": "recombinant perforin", "set-up": "method as in PMID 28582670, PMID 28110869", "conditions": "lytic activity of recombinant perforin against Jurkat T leukemia cells; cited from earlier work"}, "[2]": {"conditions": "80 mg/kg bid (0 and 18 h), pooled with pretransplant dosing data"}, "[3]": {"conditions": "120 mg/kg bid (0 and 18 h), pooled with pretransplant dosing data"}, "[4]": {"conditions": "160 mg/kg bid (0 and 18 h), pooled with pretransplant dosing data"}, "[5]": {"conditions": "160 mg/kg qd x 4 (0, 24, 48 h prior to and 18 h after transfer), 24 h after transplant"}, "[6]": {"conditions": "concentration inhibiting 90% of perforin-dependent cytotoxicity, K562 targets, effector/target 2:1, 4 h, RPMI 0.1% BSA, read-out: KHYG-1 IC90"}}, "note": "“And” between values parts separate entries of the source, which are not always exact repeats. Identical values can stand only once. Like-named read-outs stand apart in the source and are kept apart here."}
{"smiles": "CN1Cc2cc(-c3ccc(-c4cncc(NS(=O)(=O)c5ccccc5[N+](=O)[O-])c4)s3)ccc2C1=O", "note": "[Compound 1, N-{5-[5-(2-methyl-1-oxo-2,3-dihydro-1H-isoindol-5-yl)-2-thienyl]-3-pyridinyl}-2-nitrobenzenesulfonamide]", "values": [{"measurement": "% perforin inhibition, blood", "setting": "perforin; [2]", "value": -0.71, "unit": "%"}, {"measurement": "% perforin inhibition, spleen", "setting": "perforin; [2]", "value": 7.66, "unit": "%"}, {"measurement": "% perforin inhibition, blood", "setting": "perforin; 80 mg/kg qd (one dose at 0 h)", "value": -5.19, "unit": "%"}, {"measurement": "% perforin inhibition, spleen", "setting": "perforin; 80 mg/kg qd (one dose at 0 h)", "value": -4.19, "unit": "%"}, {"measurement": "% perforin inhibition, spleen", "setting": "perforin; 80 mg/kg qd x 4 (0, 24, 48 h prior to and 18 h after transfer), 24 h after transplant", "value": "7.66% and 7%"}, {"measurement": "% perforin inhibition, blood", "setting": "perforin; 80 mg/kg qd x 4, 24 h after transplant", "value": "26.33% and 26%"}, {"measurement": "% perforin inhibition, blood", "setting": "perforin; 80 mg/kg tid (0, 9 and 18 h)", "value": -1.34, "unit": "%"}, {"measurement": "% perforin inhibition, spleen", "setting": "perforin; 80 mg/kg tid (0, 9 and 18 h)", "value": -1.98, "unit": "%"}, {"measurement": "% perforin inhibition, blood", "setting": "perforin; [3]", "value": 43.66, "unit": "%"}, {"measurement": "% perforin inhibition, spleen", "setting": "perforin; [3]", "value": 30.50, "unit": "%"}, {"measurement": "perforin inhibition in vivo (in words)", "setting": "perforin; 120 mg/kg followed by two doses of 80 mg/kg", "value": "moderate perforin inhibition"}, {"measurement": "% perforin inhibition, blood", "setting": "perforin; 120 mg/kg qd (one dose at 0 h)", "value": 17.84, "unit": "%"}, {"measurement": "% perforin inhibition, spleen", "setting": "perforin; 120 mg/kg qd (one dose at 0 h)", "value": 16.71, "unit": "%"}, {"measurement": "% perforin inhibition, spleen", "setting": "perforin; 120 mg/kg qd x 4 (0, 24, 48 h prior to and 18 h after transfer), 24 h after transplant", "value": "39.90% and 40%"}, {"measurement": "% perforin inhibition, blood", "setting": "perforin; 120 mg/kg qd x 4, 24 h after transplant", "value": "44.84% and 45%"}, {"measurement": "% perforin inhibition, blood", "setting": "perforin; 120 mg/kg tid (0, 9 and 18 h)", "value": 69.14, "unit": "%"}, {"measurement": "% perforin inhibition, spleen", "setting": "perforin; 120 mg/kg tid (0, 9 and 18 h)", "value": 40.42, "unit": "%"}, {"measurement": "% perforin inhibition, blood", "setting": "perforin; [4]", "value": 56.50, "unit": "%"}, {"measurement": "% perforin inhibition, spleen", "setting": "perforin; [4]", "value": 42.46, "unit": "%"}, {"measurement": "% perforin inhibition, spleen", "setting": "perforin; [5]", "value": "48.20% and 48%"}, {"measurement": "% perforin inhibition, blood", "setting": "perforin; 160 mg/kg qd x 4, 24 h after transplant", "value": "55.47% and 55%"}, {"measurement": "% perforin inhibition, blood", "setting": "perforin; 120+80+80 mg/kg tid", "value": 34.71, "unit": "%"}, {"measurement": "% perforin inhibition, spleen", "setting": "perforin; 120+80+80 mg/kg tid", "value": 15.22, "unit": "%"}, {"measurement": "perforin inhibition in vivo (in words)", "setting": "perforin; three doses of 80 mg/kg", "value": "ineffective"}, {"measurement": "perforin inhibition in vivo (in words)", "setting": "perforin; three doses of 120 mg/kg", "value": "highly active"}, {"measurement": "IC90", "setting": "[1]; KHYG-1, estimated from IC90 5.37 μM and media free fraction 0.144, read-out: unbound in vitro IC90 in KHYG-1 cells", "value": 0.77, "unit": "µM"}, {"measurement": "IC90", "setting": "[1]; [6]", "value": "5.37 ± 1.1", "unit": "µM"}, {"measurement": "IC50", "setting": "recombinant perforin", "value": 6.65, "unit": "µM"}]}
{"smiles": "O=C1NCc2ccc(-c3ccc(-c4cncc(NS(=O)(=O)c5ccc(F)cc5F)c4)s3)cc21", "note": "[Compound 7, 2,4-difluoro-N-{5-[5-(3-oxo-2,3-dihydro-1H-isoindol-5-yl)-2-thienyl]-3-pyridinyl}benzenesulfonamide]", "values": [{"measurement": "% perforin inhibition, spleen", "setting": "perforin; [5]", "value": 26.55, "unit": "%"}, {"measurement": "IC90", "setting": "[1]; [6]", "value": "28.9 ± 6.7", "unit": "µM"}, {"measurement": "IC50", "setting": "recombinant perforin", "value": 4.15, "unit": "µM"}]}
